Data set [1] relates to YFV-17D. The experiment in a line: microbe, parasite or virus in culture. The format is cell-based. The conditions noted are these: Yellow fever virus; for EC90: read-out: Anti-YFV-17D activity Huh-7 EC90.
Data set [2] deals with YFV-17D. The experiment in a line: microbe, parasite or virus in culture. Conditions: Yellow fever virus, Macrophage, 72 h; for EC50: read-out: Anti-YFV-17D activity MDM EC50; for EC90: read-out: Anti-YFV-17D activity MDM EC90. The format is cell-based.
For data set [3], the system named is YFV-17D. The data set is described as follows: microbe, parasite or virus in culture. The class given is cell-based. The conditions noted are these: Yellow fever virus, Huh-7, 72 h; for EC50: read-out: Anti-YFV-17D EC50 (reduction in infectious virus); for EC90: read-out: Anti-YFV-17D EC90 (reduction in infectious virus).
For another data set, the system named is YFV-DakH1279. The data set is described as follows: microbe, parasite or virus in culture. The conditions noted are these: for EC50 / EC90: Yellow fever virus, Huh-7, 48 h; for EC50: read-out: Anti-YFV-DakH1279 EC50 (reduction in infectious virus); for EC90: read-out: Anti-YFV-DakH1279 EC90 (reduction in infectious virus). The format is cell-based, Yellow fever virus.

In the next data set the test system is Huh-7 cells. The experiment in a line: cells. Conditions: Homo sapiens, Huh-7, 336 h.
The test system of data set [4] is YFV. Conditions: mouse, in vivo; cited from earlier work.
The nature of data set [5]: in vitro. Conditions: human.
Data set [6] in a line: in vitro. The conditions noted are these: African green monkey.
The nature of data set [7]: in vitro. Conditions: human. This is another data set of the same source.
A short description of data set [8]: in vitro. Conditions: human. The source holds these as a separate data set.
The subject of data set [9] is YFV. Conditions: cited from earlier work.
Data set [10] concerns YFV-17D. The experiment in a line: microbe, parasite or virus in culture. The class given is cell-based. Conditions: Yellow fever virus, Huh-7, 72 h; for EC50: read-out: Anti-YFV-17D activity 3D spheroids EC50; for EC90: read-out: Anti-YFV-17D activity 3D spheroids EC90.
The test system of data set [11] is clinical YFV isolate (WT306). The conditions noted are these: mouse, in vivo, 10 mg/kg.
In data set [12] the test system is YFV-17DD. The conditions noted are these: mouse, in vivo.
The next data set has as its system dengue virus (DENV). The conditions noted are these: read-out: EC50 against dengue virus; cited from earlier work.
Data set [13] concerns Japanese encephalitis virus (JEV). Conditions: read-out: EC50 against Japanese encephalitis virus; cited from earlier work.
A further data set deals with Zika virus (ZIKV). Conditions: read-out: EC50 against Zika virus; cited from earlier work.
The next data set concerns HCV. The conditions noted are these: read-out: EC50 against HCV; cited from earlier work.
The subject of the next data set is cell lines. The conditions noted are these: cited from earlier work.
The conditions of data set [14]: rat, in vivo; cited from earlier work.
The test system of data set [15] is YFV-17DD. Conditions: mouse, in vivo; cited from earlier work.
Where [16] appears, read: Huh-7, 72 h, read-out: Anti-YFV-17D activity Huh-7 EC50.
[17] abbreviates: read-out: Mitotoxicity (Huh-7) IC50 MtDNA.
Where [18] appears, read: read-out: Mitotoxicity (Huh-7) IC50 nDNA.

Each structure is given as a SMILES string. “And” between values parts separate entries of the source, which are not always exact repeats. Equal entries are not always repeated. Where two headings read alike, the source gives them in different places.

A word on the EC50: it is the concentration that produces a half-maximal response. For orientation: EC90 means the concentration at which the effect reaches the 90% level. Broadly, the IC50 is the concentration that gives 50% inhibition. As to `CC(C)OC(=O)[C@H](C)N[P@](=O)(OC[C@H]1O[C@@H](n2ccc(=O)[nH]c2=O)[C@](C)(F)[C@@H]1O)Oc1ccccc1` [Sofosbuvir], the EC50 was 0.6 ± 0.6 µM with YFV-17D [1] (setting [16]), 1 ± 0.7 µM in the data set on YFV-17D [2], 0.3 ± 0.1 µM with YFV-17D [3] and 1.6 ± 1.3 µM in the data set on YFV-DakH1279. Besides, the EC90 in the data set on YFV-17D [1] (Huh-7, 72 h) is 3 ± 2.5 µM; in the data set on YFV-17D [2], 2.4 ± 1.5 µM; with YFV-17D [3], 1.2 ± 0.1 µM; in the data set on YFV-DakH1279 it was 3.1 ± 2.4 µM. Also, the “Average infectious YFV yield, YFV-DakH1279” value with YFV-DakH1279 was 2.7x10^4 ± 1.1x10^4 FFU/mL and 1.4x10^4 ± 1.2x10^4 FFU/mL and 2.2x10^3 ± 1.2x10^3 FFU/mL and 1.8x10^2 ± 1.2x10^2 FFU/mL. Besides, the IC50 in the data set with Huh-7 cells (setting [17]) and in the data set with Huh-7 cells (setting [18]) was > 50 µM each time. Moreover, the “efficacy against YFV in mice” value in the data set on YFV [4] is given as “little efficacy”. Moreover, the CC50 in “in vitro [5]” was > 100 µM; in the data set “in vitro [6]”, > 100 µM; in “in vitro [7]” it was 85.6 ± 11.6 µM; in the data set “in vitro [8]”, > 100 µM.

Turning to `Nc1ncnc2c([C@@H]3N[C@H](CO)[C@@H](O)[C@H]3O)c[nH]c12` [Galidesivir], the “activity against YFV in vitro” value in the data set on YFV [9] is “active”.

In the case of `C[C@@]1(O)[C@H](O)[C@@H](CO)O[C@H]1n1cc(F)c2c(N)ncnc21` [DFA, 7-deaza-7-fluoro-2′-C-methyladenosine], the concentration for a half-maximal effect (EC50) in the data set on YFV-17D [1] (setting [16]) was determined as 0.9 ± 0.6 µM. Also, the EC90 in the data set on YFV-17D [1] (Huh-7, 72 h) was determined as 3.4 ± 0.5 µM. The EC50 in the data set with YFV-17D [1] (Huh-7, read-out: EC50 against YFV-17D in vitro (summary range)) was in the range of 0.9 to 5.5 µM. In the data set on YFV-17D [2], the EC50 is 0.5 ± 0.4 µM and the EC90 was 1 ± 0.6 µM. Also, in the data set with YFV-17D [10], the EC50 was 5.5 ± 1.3 µM and the EC90 was 12.6 ± 1.9 µM. In the data set with YFV-17D [3], the EC50 was 0.8 ± 0.4 µM and the EC90 came to 5.6 ± 2.6 µM. Moreover, in the data set on YFV-DakH1279, the EC50 was found to be 2.4 ± 1.9 µM and the EC90 is 5 ± 3.1 µM. In data set [11], the ALT levels result is “markedly reduced”, the “YFV-mediated liver pathology (histology)” value is “significantly reduced”, the “clinical severity (clinical disease score)” value was “modest but significant decrease” and the “leukocytosis (total circulating leukocytes)” value is “significantly reduced”. In data set [11], the “total portion of granulocytes in the blood” value is “significantly reduced”; the “virus replication in the liver, infectious virions (plaque assay)” value is recorded as “significantly reduced”; the “virus replication in the liver, total genome copy numbers” value is listed as “significantly reduced”. Besides, in the data set with YFV-17DD [12], the body weight result was “no significant changes”; the “inflammatory cell infiltration, infiltrate score” value is recorded as ~ 1; the “total white blood cell numbers” value is given as “no significant changes”. In addition, in the data set with YFV-17DD [12] (10 mg/kg), the ALT levels entry is “significantly reduced”, the “YFV-17DD replication in the livers (qRT-PCR)” value is listed as “significantly reduced”, the “liver pathology by histopathological analysis” value was “reduced liver pathology” and the overall health status result is on record as “no notable impact”. Also, in the data set on Huh-7 cells (setting [17]), the IC50 was > 50 µM. The IC50 in the data set with Huh-7 cells (setting [18]) is > 50 µM. The EC50 in the data set with dengue virus (DENV) is 0.5 to 1 µM. The EC50 in data set [13] was 0.9 µM. Besides, in the data set on Zika virus (ZIKV), the EC50 was 3.7 µM. In addition, the EC50 in the data set on HCV was 0.07 to 0.9 µM. In addition, the CC50 in “in vitro [6]” worked out at 92.4 ± 8.1 µM. Further, the “cytotoxicity CC50” value in the data set with cell lines is reported as >100–>200. For the same compound, the pharmacokinetic profile entry in data set [14] is reported as “favorable pharmacokinetic profile”.

Consider `CC(C)OC(=O)[C@H](C)N[P@](=O)(OC[C@H]1O[C@@H](n2ccc(=O)[nH]c2=O)[C@@](F)(Br)[C@@H]1O)Oc1ccccc1` [Compound 2-FBU], for which the EC50 with YFV-17D [1] (setting [16]) was determined as 0.9 ± 0.8 µM; with YFV-17D [2], 0.2 ± 0.1 µM; in the data set on YFV-17D [10], 2.2 ± 0.2 µM; in the data set on YFV-17D [3], 1.2 ± 0.5 µM; in the data set with YFV-DakH1279 it was 1.7 ± 1.1 µM. The EC90 was 8.1 ± 3.5 µM with YFV-17D [1] (Huh-7, 72 h); 3 ± 1.6 µM with YFV-17D [2]; 7.7 ± 0.3 µM with YFV-17D [10]; 8.6 ± 3.1 µM with YFV-17D [3]; 3.5 ± 2.3 µM in the data set on YFV-DakH1279. In addition, the “Average infectious YFV yield, YFV-DakH1279” value with YFV-DakH1279 is 4.0x10^4 ± 6.1x10^3 FFU/mL and 2.4x10^4 ± 9.8x10^3 FFU/mL and 3.3x10^3 ± 2.4x10^3 FFU/mL and 2.8x10^2 ± 1.7x10^2 FFU/mL. Besides, the IC50 in the data set with Huh-7 cells (setting [17]) was 40.9 µM; with Huh-7 cells (setting [18]) it was > 50 µM. In addition, in the data set on YFV-17DD [15], the “log reduction in YFV genome copies in the liver tissue” value is 0.7 log. Besides, the “percent reduction in YFV genome copies in the liver tissue” value in the data set with YFV-17DD [15] is on record as ~ 80%. Also, in “in vitro [6]”, the CC50 is > 100 µM. In addition, in the data set on cell lines, the “cytotoxicity CC50” value is recorded as 68.9–>100.
